Reference: patent publication US20110098180A1, “Herbicide-Resistant Plants, And Polynucleotides And Methods For Providing Same” (United States Department of Agriculture, priority 2002, published 2011)

Key:
Assay type in all cases: biochemical, Hydrilla verticillata
[1] = tested on: Hydrilla PDS Leu^542 → Arg; assay: Fluridone enzyme inhibition assay, other substitutions (Table 3)
Method: (§1) To explore whether mutations at positions other than 304 of the hydrilla PDS enzyme and corresponding positions of other plant PDS enzymes also confer herbicide resistance, mutations discovered in Synechococcus strain PCC7942 (Leu^320→Pro; Val^403→Gly; Leu^436→Arg) were introduced into the hydrilla PDS sequence at the corresponding locations, and the resulting PDS enzymes tested for resistance.
(§2) Phytoene desaturase activity and its inhibition by herbicides was determined using an in vitro system using components derived from the in vivo production of phytoene and phytoene desaturase proteins. All mutations described in Examples 3 and 4 were tested. […] The clones were used for the heterologous expression of Hydrilla-PDS-enzyme. In particular, bacterial cultures were grown from single colonies overnight in Wu-broth (6.27 g/L K2HPO4, 1.8 g/L KH2PO4, 0.5 g/L Na-citrate, 0.9 g/L (NH4)2SO4, 10 g/L tryptone, 5 g/L yeast extract, 10 g/L NaCl, 44 ml/L glycerol, 0.1 mM MgSO4, pH 7.2) with kanamycin. 1-mL was aliquoted in centrifuge tube and stored at −80° C. For expression, 1 L LB-medium with kanamycin was inoculated with 1-mL Wu-culture and grown for 24 h at 37° C. to stationary phase with shaking at 200 rpm. The cells were collected by centrifugation at 2000×g. All of the following steps were done at 4° C. unless otherwise noted. Active soluble PDS enzyme was extracted by lysing the transformed E. coli cells using a French Press at 20,000 psi in assay buffer consisting of 100 mM Tris-HCl, pH 7.2, 10 mM magnesium-chloride, 0.1 mM NADP, 0.1 mM FAD, 10 mM cysteine, 5 mM DTT, 1 mM aminocaproic acid, and 1 μg/ml leupeptin. The soluble fraction containing PDS activity was obtained by centrifugation for 10 min at 1200×g. After 24 h they were centrifuged down and used in PDS enzyme activity assays as described below.
(§3) Generally, PDS protein fractions prepared as described above (Non-His-tagged and His-tagged) were mixed with a soluble fraction from phytoene-producing E. coli cells. […]

[2] = tested on: Hydrilla PDS Val^509 → Gly; assay: as above
Method: as §1, §2, §3

[3] = tested on: Hydrilla PDS Leu^425 → Pro; assay: as above
Method: as §1, §2, §3

[4] = tested on: Hydrilla PDS Arg^304 → Threonine; assay: Fluridone enzyme inhibition assay, non-His-tagged PDS (Table 1); details: relative to Arginine
Method: The expression constructs in Table 1 were derived from an original clone of the susceptible PDS gene from Hydrilla and then the Arg^304 was mutated to the listed amino acid. Expression was under the control of the lac promoter […] with the initiation codon of the LacZalpha-ccdB gene in the pCR4-TOPO vector (Invitrogen Inc., CA, Cat. #K4575-01).
All mutagenesis was performed, unless stated otherwise, using the TOPO-vector containing the wildtype (H4) PDS-sequence, which was extracted from an overnight culture with the Qiagen Plasmid Prep Kit as described above. The amount of the extracted plasmid was diluted to 10 ng/μl and used as template in a mutagenesis-procedure using the QuikChange Site-directed Mutagenesis Kit (Stratagene, Calif., #200518). The design of the mutagenesis-primers was conducted according to the manufacturers protocol to enable the specific change of Arg^304-codon to code for the desired amino acid. Primers (purchased from MWG-Biotech) and their introduced amino acid change are listed below with the changed codon underlined:
The reactions were performed according to the manufacturers protocol. Reactions were set up in MicroAmp-tubes on ice with 38 μl ddH2O, 5 μl 10× reaction buffer, 2 μl plasmid (10 ng/μl), 1.25 μl forward-mutagenesis primer (100 ng/μl), 1.25 μl of reverse mutagenesis primer (100 ng/μl), 1 μl dNTP-mix and 1 μl PfuTurboDNA polymerase (2.5 U/μl). The reactions were placed in a PE 9700 thermal cycler and heated to 95° C. for 30 sec followed by 12 rounds at 95° C. for 30 sec, 55° C. for 1 min and 68° C. for 12 min. The PCR was followed by a DpnI-digestion and transformation in XL1-Blue supercompetent cells as described in the manual. 4-6 resulting colonies were grown overnight in LB-medium with kanamycin and plasmid DNA was isolated as described above. The plasmid was used as template for sequencing with M13 and internal PDS-primers as described above on a LiCOR-system. Sequences were assembled and analyzed using Seqman. Introduced mutations were identified and plasmids carrying the desired mutation(s) were transferred into competent TOP10-cells, using the transformation protocol from the TOPO TA Cloning Kit. Resulting colonies were grown overnight in Wu-broth with kanamycin, aliquoted and stored at −80° C. until further use. 1 ml of Wu-cultures was used to start 1-L LB-cultures with kanamycin as described before, to express active PDS-enzyme for testing as described.
as §2

## Fluridone
[1]
  R/S: 4.5
[2]
  R/S: 14.5
[3]
  R/S: 1.6
[4]
  R/S: 40
